Assay results published in patent US5290689A, “New cyclic FR-900520 microbial biotransformation agent” (Merck & Co., Inc., priority 1992, dated 1994).
Entries after “also recorded” stand apart in the source; their conditions may differ.

Columns and labels:
[1] = system: mouse T lymphocytes (Splenic T-cells stimulated with ionomycin + PMA); assay: T-cell proliferation assay (ionomycin + PMA stimulated, tritiated thymidine uptake); assay type: cell-based, mouse (C57B1/6)
Procedure: The principle of this assay is to measure the proliferation of mouse T lymphocytes stimulated with the combination of ionomycin plus PMA. A positive sample, e.g. FK-506, in this assay will inhibit T-cell proliferation, as indicated by reduced tritiated thymidine uptake.
T-Cell Proliferation Assay
Purified Compound I, as prepared by HPLC above, was dissolved in absolute ethanol at 1 mg/ml.
Spleens from C57B1/6 mice were taken under sterile conditions and gently dissociated in ice-cold RPMI 1640 culture medium (GIBCO, Grand Island, N.Y.) supplemented with 10% heat-inactivated fetal calf serum (GIBCO). Cells were pelleted by centrifugation at 1500 rpm for 8 minutes. Contaminating red cells were removed by treating the pellet with ammonium chloride lysing buffer (GIBCO) for 2 minutes at 4° C. […]
Purified T lymphocytes were resuspended at 2.5×10^5 cells/ml in complete culture medium composed of RPMI 1640 medium with 10% heat-inactivated fetal calf serum, […], 1 mM sodium pyruvate, 2×10^-5 M 2-mercaptoethanol and 50 μg/ml gentamycin. […] Radioactivity of filter discs corresponding to individual wells was measured by standard liquid scintillation counting methods (Betacounter). Mean counts per minute of replicate wells were calculated and the results expressed as percent inhibition of tritiated thymidine uptake (proliferation) as follows: [formula] […]

[2] = reputed; EPO Publication No. 0184162; cited from earlier work

SMILES	Inhibition of T-cell proliferation on addition of IL2 ([1]; 50 units/ml recombinant IL2 added at the initiation of culture)	immunosuppressant activity (inhibition of T-cell activation) ([1]; qualitative)	effectiveness as immunosuppressant relative to cyclosporin [2] [times]
CC[C@@H]1C=C2COC1(O)C[C@H](O)[C@@H](C)[C@@H](/C(C)=C/[C@@H]1CC[C@@H](O)[C@H](OC)C1)OC(=O)[C@@H]1CCCCN1C(=O)C(=O)[C@]1(O)O[C@H]([C@@H](OC)C[C@@H](C)C2)[C@@H](OC)C[C@H]1C [Compound I]	reversed	positive inhibition of T-cell activation; also recorded: positive immunosuppressive activity	–
C=CC[C@@H]1/C=C(\C)C[C@H](C)C[C@H](OC)[C@H]2O[C@@](O)(C(=O)C(=O)N3CCCC[C@H]3C(=O)O[C@H](/C(C)=C/[C@@H]3CC[C@@H](O)[C@H](OC)C3)[C@H](C)[C@@H](O)CC1=O)[C@H](C)C[C@@H]2OC [FK-506]	–	–	100
